From patent US20090208550A1, “Methods and compositions for treating hepatic diseases” (priority 2007, published 2009) come the findings set out here.

Series [1] deals with ATP citrate lyase (ACL) mRNA. Briefly: Real-time PCR of ACL mRNA in cultured AML-12 hepatocytes. The format is cell-based, mouse. The note with it: AML-12 cells, 24 hours; for mRNA for ACL: 10^-6M, control 100.0%, n=3. How it is done:
(§1) Total RNA was isolated from cultured hepatocytes using Trizol reagent (Invitrogen, USA) and RNA extracted according to the manufacturer's instructions, then dissolved in sterile DEPC water and stored at −80° C. 1 μg RNA of sample RNA was transcribed to cDNA with the GeneAmp RNA Core Kit (Applied Biosystems, Branchburg, N.J.). Primer sequences ATP citrate lyase (ACL): forward 5′-GAAGCTGACCTTGCTGAACC-3′, reverse 5′-CTGCCTCCAATGATGAGGAT-3′; fatty acid synthase (FAS): forward 5′-TGGGTTCTAGCCAGCAGAGT-3′, reverse: 5′-ACCACCAGAGACCGTTATGC-3′. PCR was performed with the SYBR Green PCR Kit (Applied Biosystems, Foster City, Calif.) following the manufacturer's instructions and carried out on the Mx3005P™ Q-PCR system (Stratagene, La Jolla, Calif.) in 50 μl volume. The number of copies for each amplicon was calculated by Mx3005P software, normalized to GAPDH and expressed as a dimensionless ratio.

In series [2] the test system is fatty acid synthase (FAS) mRNA. Briefly: Real-time PCR of FAS mRNA in cultured AML-12 hepatocytes. The format is cell-based, mouse. Conditions: AML-12 cells, 24 hours; for mRNA for FAS: 10^-6M, control 100.0%, n=3. How it is done:
as §1
In general terms: Quantitative PCR measures a nucleic acid by following its amplification.

In a further series the test system is AML-12 hepatocytic cells. Briefly: Fat accumulation in AML-12 cells: Oil Red O staining and cellular triglyceride (Example 7). The note with it: twenty-four hours; for intracellular triglyceride levels / lipid accumulation by Oil Red O staining / blockade of the effect of NECA on hepatocyte triglyceride accumulation: NECA 10 mM; for blockade of the effect of NECA on hepatocyte triglyceride accumulation: MRS1706 1 mM. As for the experimental part: Hepatocyte cell culture, triglyceride measurement and oil red O staining of hepatocytes. […] AML-12 Cells were grown in 1:1 mixture of DMEM-Ham's F-12 medium supplemented with 0.005 mg/ml insulin, 0.005 mg/ml transferrin, 5 ng/ml selenium, 40 ng/ml dexamethasone, 10% fetal bovine serum and antibiotics. Upon reaching 70-80% confluence the cells were treated for 6 hours in serum-free DMEM-Ham's F-12 medium and then treated with different adenosine receptor agonists, antagonists or vehicle (DSMO, 1.28×10^−5M), respectively. The method of the triglyceride measurement of hepatocytes is the same as the liver tissue. The cells were fixed with 10% neutral formalin, and Oil Red O staining as described above.

For series [3], the system named is AML-12 mouse hepatocyte cell line. Briefly: Oil Red O staining, lipid content of AML-12 hepatocytes (Example 1). The format is cell-based. The note with it: AML-12 cells, 24 hours.
The test system of series [4] is ACL, FAS, ACCα, CPTI, PPARα, PPARγ and SREBP1 mRNA in mouse liver tissue. Briefly: Real-time PCR of hepatic mRNA expression in ethanol-fed mice (Example 6). The format is in vivo. The note with it: chronic ethanol ingestion, 50 mg/Kg/Day, n=5.
Protocol: Real-time PCR quantitation of mRNA. Total RNA was isolated from liver tissue using Trizol reagent (Invitrogen, USA) and RNA extracted according to the manufacturer's instructions, then dissolved in sterile DEPC water and stored at −80° C. 1 μg of sample RNA was transcribed to cDNA with the GeneAmp RNA Core Kit (Applied Biosystems, Branchburg, N.J.). […] The number of copies for each amplicon was calculated by Mx3005P software, normalized to GAPDH and expressed as a dimensionless ratio.
Materials and methods. mRNA expression of genes in hepatic tissue was assessed by Real-time PCR and normalized to GAPDH. […] The number of copies for each amplicon was calculated by Mx3005P software, normalized to GAPDH and expressed as a dimensionless ratio.
For series [5], the system named is ethanol-induced fatty liver in C57Bl/6 mice. Put plainly: Ethanol-induced fatty liver in mice treated with adenosine receptor antagonists (Example 5). The note with it: ethanol diet 6 weeks, 50 mg/Kg/Day, versus ethanol-treated wild type mice. The format is in vivo, mouse. The text has this: Mouse models of fatty livers and treatment. Mice were fed an ethanol-containing liquid Lieber-De-Carli diet (ethanol provides 350 Kcal/L) or a calorie equivalent diet supplemented with maltose (BioServ Inc., Frenchtown, N.J.) for 6 weeks. […] In first week, animals were gradually introduced to the ethanol diet following the manufacturer's instructions. Mice were sacrificed by CO2 narcosis at the end of the experiment and their livers were collected. Two wild type mice and one CD73 knockout mouse on an ethanol-containing diet died, and none of the antagonist-treated or other knockout mice died during the course of these experiments.
Hematoxylin-Eosin (H&E) and Oil Red O staining of liver sections. Livers were fixed with 10% neutral formalin, embedded in paraffin and stained with H&E for histological examination. Liver steatosis was graded as previously described (Hong et al., Hepatology (2004) 40:933-941) based on the semiquantitative estimation of the percentage of lipid-laden hepatocytes in the liver according to the following criteria: grade 0: no hepatocytes involved; grade 1: 1% to 25% of hepatocytes involved; grade 2: 26% to 50% of hepatocytes involved; grade 3: 51% to 75% of hepatocytes involved; and grade 4: 76% to 100% of hepatocytes involved. At least five random different high power fields (hpf) of each cross-section (400× magnification) were graded in a blinded way. […]
Measurements of serum AST and triglyceride. […] AST and triglyceride were measured by standard techniques in the Clinical Laboratory of Bellevue Hospital. […]
Materials and Methods. […] The liver and body of the mice were weighed on the day of sacrifice and the liver/total body weight ratio calculated. The serum AST and triglyceride and hepatic tissue triglyceride levels were also measured, as described in Example 3, supra. […]

SMILES strings stand for the structures.

Turning to `OC[C@H]1O[C@@H](n2cnc3c(NC4CCCC4)ncnc32)[C@H](O)[C@@H]1O` [CPA, N6-cyclopentyladenosine], the “mRNA for ACL” value in series [1] is given as 181.4±12.9%. Besides, the “mRNA for FAS” value in series [2] worked out at 164.2±6.8%. In addition, in the series with AML-12 hepatocytic cells (CPA 1 mM), the intracellular triglyceride levels entry is on record as “increased” and the “lipid accumulation by Oil Red O staining” value is on record as “accumulated lipid”. In series [3] (CPA 10^-6M, Oil Red O), the “lipid content of hepatocytes” value is listed as “significantly increased”.
Take `CCCn1c(=O)c2[nH]c(C3CCCC3)nc2n(CCC)c1=O` [DPCPX, 1,3 dipropyl-8-cyclopentylxantine]: in series [4], the “ethanol-induced change of mRNA expression of ACCα, CPT1 and PPARα in liver” value is “reduced”; the “ethanol-induced mRNA expression of ACL, FAS, PPARγ and SREBP1 in liver” value is given as “prevented the ethanol-induced increase in expression”. Also, in series [1], the “blockade of the CPA-induced increase of mRNA for ACL” value is “completely blocked” and the “mRNA for ACL” value was 92.0±5.2%. For the same molecule, in series [2], the “blockade of the CPA-induced increase of mRNA for FAS” value is on record as “completely blocked” and the “mRNA for FAS” value amounted to 105.8±5.3%. In addition, in the series with AML-12 hepatocytic cells (CPA 1 mM, DPCPX 1mM), the “blockade of the effect of CPA on hepatocyte triglyceride accumulation” value was “almost completely abrogated”. The “blockade of the effect of NECA on hepatocyte triglyceride accumulation” value in the series on AML-12 hepatocytic cells (DPCPX 1mM) is reported as “partly blocked”. Also, in series [3] (CPA 10^-6M + DPCPX 10^-6M), the “blockade of the effect of CPA on lipid content of hepatocytes” value is “nearly completely blocked”. In addition, the “serum AST levels” value in series [5] is “significantly lower”.
As to `CCCn1c(=O)c2[nH]c(-c3ccc(OCC(=O)Nc4ccc(C(C)=O)cc4)cc3)nc2n(CCC)c1=O` [MRS1706, N-(4-aceptylphenyl)-2-[4-(2,3,6,7-tetrahydro-2,6-dioxo-1,3-dipropyl-1H-purine-8-yl)phenoxy]acetamide], the “blockade of the effect of NECA on hepatocyte triglyceride accumulation” value in the series with AML-12 hepatocytic cells (DPCPX 1mM) is “almost completely abrogated”.
`CCNC(=O)[C@H]1O[C@@H](n2cnc3c(N)ncnc32)[C@H](O)[C@@H]1O` [NECA, 5′-N-ethylcarboxamidoadenosine]: in the series with AML-12 hepatocytic cells (CPA 1 mM), the intracellular triglyceride levels result is reported as “increased” and the “lipid accumulation by Oil Red O staining” value was “accumulated lipid”.
Consider `CCCn1c(=O)[nH]c(=O)c2[nH]cnc21` [enprofylline, 3-propylxanthine], for which, in series [5], the “serum AST levels” value is recorded as “significantly lower” and the serum triglyceride levels entry was “significant reduction”.
